This assay deals with RPE-Neo or RPE-MYC or RPE-MYC expressing an EGFP-Histone 2B fusion protein. Kind of assay: Phenotypic screening assay (arrest in mitosis, change in DNA content, cell death; GE IN-Cell Analyzer 2000). Type of assay: cell-based. The conditions noted are these: Homo sapiens, compounds 20 nM to 20 μM, 24, 48 or 72 hours.
Where [1] appears, read: read-out: Min. Effective conc. for Polyploidy (≥10%).
Setting [2] is: min. effective conc., read-out: Cell Death (>30%).
[3] abbreviates: min. effective conc., read-out: Mitotic Arrest (≥10%).

Structures are written as SMILES. Like-named read-outs stand apart in the source and are kept apart here.

Take `COC(=O)C1=C(O)c2ccccc2N(Cc2ccc(C)c(C)c2)C(=O)C1` [Example 36, Methyl 1-(3,4-dimethylbenzyl)-5-hydroxy-2-oxo-2,3-dihydro-1H-benzo[b]azepine-4-carboxylate]: the minimal effective concentration by setting is: under setting [1], 10 to 30 µM; under setting [2], 10 to 30 µM; under setting [3], 10 to 30 µM.

For `CCc1ccc(CN2C(=O)CC(C(=O)OC)=C(O)c3ccccc32)cc1` [Example 37, Methyl 1-(4-ethylbenzyl)-5-hydroxy-2-oxo-2,3-dihydro-1H-benzo[b]azepine-4-carboxylate], the minimal effective concentration reads like this: under setting [1], 0.001 to 1 µM; under setting [2], 0.001 to 1 µM; under setting [3], 0.001 to 1 µM.

With `COC(=O)C1=C(O)c2ccccc2N(Cc2ccc(C(F)(F)F)cc2)C(=O)C1` [Example 40, Methyl 5-hydroxy-2-oxo-1-(4-(trifluoromethyl)benzyl)-2,3-dihydro-1H-benzo[b]azepine-4-carboxylate], the minimal effective concentration under setting [1] was in the range of 1 to 10 µM, the minimal effective concentration under setting [2] is 1 to 10 µM and the minimal effective concentration under setting [3] is 1 to 10 µM.

For `COC(=O)C1=C(O)c2ccccc2N(Cc2ccc(C)c(F)c2)C(=O)C1` [Example 41, Methyl 1-(3-fluoro-4-methylbenzyl)-5-hydroxy-2-oxo-2,3-dihydro-1H-benzo[b]azepine-4-carboxylate], the minimal effective concentration under setting [1] lay in the range of 0.001 to 1 µM, the minimal effective concentration under setting [2] was 0.001 to 1 µM and the minimal effective concentration under setting [3] is 0.001 to 1 µM.

On to `COC(=O)C1=C(O)c2ccccc2N(Cc2ccc(C)c(Cl)c2)C(=O)C1` [Example 45, Methyl 1-(3-chloro-4-methylbenzyl)-5-hydroxy-2-oxo-2,3-dihydro-1H-benzo[b]azepine-4-carboxylate], for which the minimal effective concentration is, setting by setting: under setting [1], 1 to 10 µM; under setting [2], 1 to 10 µM; under setting [3], 1 to 10 µM.

Take `COC(=O)C1=C(O)c2ccccc2N(Cc2ccc(C)c(Br)c2)C(=O)C1` [Example 46, Methyl 1-(3-bromo-4-methylbenzyl)-5-hydroxy-2-oxo-2,3-dihydro-1H-benzo[b]azepine-4-carboxylate]: the minimal effective concentration lay within 1 to 10 µM under setting [1], 1 to 10 µM under setting [2] and 1 to 10 µM under setting [3].

In the case of `COC(=O)C1=C(O)c2ccccc2N(Cc2ccc(OC)c(F)c2)C(=O)C1` [Example 48, Methyl 1-(3-fluoro-4-methoxybenzyl)-5-hydroxy-2-oxo-2,3-dihydro-1H-benzo[b]azepine-4-carboxylate], the minimal effective concentration lay within 0.001 to 1 µM under setting [1], 0.001 to 1 µM under setting [2] and 0.001 to 1 µM under setting [3].

`CCCc1ccc(CN2C(=O)CC(C(=O)OC)=C(O)c3ccccc32)cc1` [Example 49, Methyl 5-hydroxy-2-oxo-1-(4-propylbenzyl)-2,3-dihydro-1H-benzo[b]azepine-4-carboxylate]: the minimal effective concentration is, setting by setting: under setting [1], 10 to 30 µM; under setting [2], 10 to 30 µM; under setting [3], 10 to 30 µM.

Regarding `CCCCc1ccc(CN2C(=O)CC(C(=O)OC)=C(O)c3ccccc32)cc1` [Example 50, Methyl 1-(4-butylbenzyl)-5-hydroxy-2-oxo-2,3-dihydro-1H-benzo[b]azepine-4-carboxylate], the minimal effective concentration was in the range of 10 to 30 µM under setting [1], 10 to 30 µM under setting [2] and 10 to 30 µM under setting [3].

`COC(=O)C1=C(O)c2ccccc2N(Cc2ccc(OC)c(OC)c2)C(=O)C1` [Example 51, Methyl 1-(3,4-dimethoxybenzyl)-5-hydroxy-2-oxo-2,3-dihydro-1H-benzo[b]azepine-4-carboxylate]: the minimal effective concentration is 30 to 1000 µM under setting [1], 30 to 1000 µM under setting [2] and 30 to 1000 µM under setting [3].

Turning to `COC(=O)C1=C(O)c2cc(F)ccc2N(Cc2ccc(C)c(F)c2)C(=O)C1` [Example 52, Methyl 7-fluoro-1-(3-fluoro-4-methylbenzyl)-5-hydroxy-2-oxo-2,3-dihydro-1H-benzo[b]azepine-4-carboxylate], the minimal effective concentration under setting [1] is 0.001 to 1 µM, the minimal effective concentration under setting [2] fell in the range of 0.001 to 1 µM and the minimal effective concentration under setting [3] lay in the range of 0.001 to 1 µM.

Consider `COC(=O)C1=C(O)c2cnccc2N(Cc2ccc(C)c(F)c2)C(=O)C1` [Example 53, Methyl 1-(3-fluoro-4-methylbenzyl)-5-hydroxy-2-oxo-2,3-dihydro-1H-pyrido[4,3-b] azepine-4-carboxylate], for which the minimal effective concentration is, setting by setting: under setting [1], 1 to 10 µM; under setting [2], 1 to 10 µM; under setting [3], 1 to 10 µM.

Turning to `COC(=O)C1=C(O)c2cc(OC)c(OC)cc2N(Cc2ccc(C)c(F)c2)C(=O)C1` [Example 54, Methyl 1-(3-fluoro-4-methylbenzyl)-5-hydroxy-7,8-dimethoxy-2-oxo-2,3-dihydro-1H-benzo[b]azepine-4-carboxylate], the minimal effective concentration by setting is: under setting [1], 0.001 to 1 µM; under setting [2], 0.001 to 1 µM; under setting [3], 0.001 to 1 µM.

Take `CCC(=O)C1=C(O)c2ccccc2N(Cc2ccc(C)c(F)c2)C(=O)C1` [Example 55, 1-(3-fluoro-4-methylbenzyl)-5-hydroxy-4-propionyl-1,3-dihydro-2H-benzo[b]azepin-2-one]: the minimal effective concentration under setting [1] lay in the range of 0.001 to 1 µM and the minimal effective concentration under setting [3] was in the range of 0.001 to 1 µM.

Turning to `CC(=O)C1=C(O)c2ccccc2N(Cc2ccc(C)c(F)c2)C(=O)C1` [Example 56, 4-acetyl-1-(3-fluoro-4-methylbenzyl)-5-hydroxy-1,3-dihydro-2H-benzo[b]azepin-2-one], the minimal effective concentration is, setting by setting: under setting [1], 1 to 10 µM; under setting [3], 1 to 10 µM.

As to `CCCC(=O)C1=C(O)c2ccccc2N(Cc2ccc(C)c(F)c2)C(=O)C1` [Example 57, 4-butyryl-1-(3-fluoro-4-methylbenzyl)-5-hydroxy-1,3-dihydro-2H-benzo[b]azepin-2-one], the minimal effective concentration reads like this: under setting [1], 1 to 10 µM; under setting [2], 1 to 10 µM; under setting [3], 0.001 to 1 µM.

Regarding `Cc1ccc(CN2C(=O)CC(C(=O)C3CC3)=C(O)c3ccccc32)cc1F` [Example 58, 4-(cyclopropanecarbonyl)-1-(3-fluoro-4-methylbenzyl)-5-hydroxy-1,3-dihydro-2H-benzo[b]azepin-2-one], the minimal effective concentration under setting [1] fell in the range of 0.001 to 1 µM, the minimal effective concentration under setting [2] lay within 0.001 to 1 µM and the minimal effective concentration under setting [3] lay within 0.001 to 1 µM.

On to `Cc1ccc(CN2C(=O)CC(C(=O)C(C)C)=C(O)c3ccccc32)cc1F` [Example 59, 1-(3-fluoro-4-methylbenzyl)-5-hydroxy-4-isobutyryl-1,3-dihydro-2H-benzo[b]azepin-2-one], for which the minimal effective concentration is, setting by setting: under setting [1], 0.001 to 1 µM; under setting [2], 0.001 to 1 µM; under setting [3], 0.001 to 1 µM.

As to `Cc1ccc(CN2C(=O)CC(C(=O)C(C)(C)C)=C(O)c3ccccc32)cc1F` [Example 60, 1-(3-fluoro-4-methylbenzyl)-5-hydroxy-4-pivaloyl-1,3-dihydro-2H-benzo[b]azepin-2-one], the minimal effective concentration lay within 1 to 10 µM under setting [1], 1 to 10 µM under setting [2] and 1 to 10 µM under setting [3].

As to `Cc1ccc(CN2C(=O)CC(C(=O)C3CCCO3)=C(O)c3ccccc32)cc1F` (stereo not shown) [Example 62, 1-(3-fluoro-4-methylbenzyl)-5-hydroxy-4-(tetrahydrofuran-2-carbonyl)-1,3-dihydro-2H-benzo[b]azepin-2-one], the minimal effective concentration runs as follows: under setting [1], 1 to 10 µM; under setting [2], 1 to 10 µM; under setting [3], 1 to 10 µM.

Consider `CNC(=O)C1=C(O)c2ccccc2N(Cc2ccc(C)c(F)c2)C(=O)C1` [Example 63, 1-(3-fluoro-4-methylbenzyl)-5-hydroxy-N-methyl-2-oxo-2,3-dihydro-1H-benzo[b]azepine-4-carboxamide], for which the minimal effective concentration lay in the range of 1 to 10 µM under setting [1], 1 to 10 µM under setting [2] and 1 to 10 µM under setting [3].

`CCNC(=O)C1=C(O)c2ccccc2N(Cc2ccc(C)c(F)c2)C(=O)C1` [Example 64, N-ethyl-1-(3-fluoro-4-methylbenzyl)-5-hydroxy-2-oxo-2,3-dihydro-1H-benzo[b]azepine-4-carboxamide]: the minimal effective concentration runs as follows: under setting [1], 1 to 10 µM; under setting [2], 1 to 10 µM; under setting [3], 1 to 10 µM.

In the case of `Cc1ccc(CN2C(=O)CC(C(=O)NC(C)C)=C(O)c3ccccc32)cc1F` [Example 65, 1-(3-fluoro-4-methylbenzyl)-5-hydroxy-N-isopropyl-2-oxo-2,3-dihydro-1H-benzo[b]azepine-4-carboxamide], the minimal effective concentration lay in the range of 1 to 10 µM under setting [1], 1 to 10 µM under setting [2] and 1 to 10 µM under setting [3].

Consider `Cc1ccc(CN2C(=O)CC(C(=O)NC3CCCCC3)=C(O)c3ccccc32)cc1F` [Example 66, N-cyclohexyl-1-(3-fluoro-4-methylbenzyl)-5-hydroxy-2-oxo-2,3-dihydro-1H-benzo[b]azepine-4-carboxamide], for which the minimal effective concentration reads like this: under setting [1], 10 to 30 µM; under setting [2], 10 to 30 µM; under setting [3], 10 to 30 µM.

Consider `CNC(=S)C1=C(O)c2ccccc2N(Cc2ccc(C)c(F)c2)C(=O)C1` [Example 67, 1-(3-fluoro-4-methylbenzyl)-5-hydroxy-N-methyl-2-oxo-2,3-dihydro-1H-benzo[b]azepine-4-carbothioamide], for which the minimal effective concentration under setting [1] was in the range of 10 to 30 µM, the minimal effective concentration under setting [2] lay in the range of 10 to 30 µM and the minimal effective concentration under setting [3] lay in the range of 10 to 30 µM.

As for `Cc1ccc(CN2C(=O)CC(C(=O)C(F)(F)F)=C(O)c3ccccc32)cc1F` [Example 68, 1-(3-fluoro-4-methylbenzyl)-5-hydroxy-4-(2,2,2-trifluoroacetyl)-1,3-dihydro-2H-benzo[b]azepin-2-one], the minimal effective concentration is 10 to 30 µM under setting [1], 10 to 30 µM under setting [2] and 10 to 30 µM under setting [3].

The record behind these values is patent publication US20240270695A1, “COMPOUNDS, COMPOSITIONS AND METHODS OF TREATING DISORDERS” (Chengdu Anticancer Bioscience LTD, priority 2021, published 2024).
